Experimental data from paper PMC8427694, “The Herbal Compound Thymol Targets Multiple Salmonella Typhimurium Virulence Factors for Lon Protease Degradation” (Frontiers in Pharmacology, 2021).

Columns and labels:
Format in all cases: cell-based
GST-SipA497-669 [1] = biological target: T1, GST-SipA497-669 (Salmonella enterica, UniProt E1WAC6); experiment: click chemistry labelling, in-gel fluorescence; conditions: covalent (suggested; survives SDS and 100 °C); labelled compound; compound added to E. coli culture during expression, 20 °C, 16 h; possibly a cellular derivative binds
T1 construct: gene sipA; residues 497-669 (actin nucleation domain), N-terminal GST (pGEX-6p-1) kept, expressed in E. coli BL21(DE3), glutathione-Sepharose purified
T1 sequence (E1WAC6 497-669 limits assumed): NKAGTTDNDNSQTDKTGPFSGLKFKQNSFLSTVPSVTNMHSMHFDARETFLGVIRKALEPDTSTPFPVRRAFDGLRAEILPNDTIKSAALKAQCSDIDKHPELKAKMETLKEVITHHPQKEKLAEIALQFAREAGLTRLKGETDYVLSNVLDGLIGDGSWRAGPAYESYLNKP

GST-SipA27-270 [2] = biological target: T2, GST-SipA27-270 (Salmonella enterica, UniProt E1WAC6); experiment: click chemistry labelling, in-gel fluorescence; conditions: covalent (suggested; survives SDS and 100 °C); labelled compound; compound added to E. coli culture during expression, 20 °C, 16 h; possibly a cellular derivative binds
T2 construct: gene sipA
T2 sequence (E1WAC6 27-270): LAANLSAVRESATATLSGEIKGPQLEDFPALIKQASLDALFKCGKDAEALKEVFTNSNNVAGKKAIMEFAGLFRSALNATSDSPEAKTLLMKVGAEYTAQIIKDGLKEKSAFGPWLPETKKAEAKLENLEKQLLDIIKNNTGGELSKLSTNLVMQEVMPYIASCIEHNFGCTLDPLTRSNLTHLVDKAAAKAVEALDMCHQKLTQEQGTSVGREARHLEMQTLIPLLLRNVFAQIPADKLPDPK

GST-SipA497-669 [3] = biological target: T1, GST-SipA497-669; experiment: circular dichroism of purified protein from thymol-exposed cells; conditions: thymol present in E. coli culture during expression; protein 7.3 uM in PBS, 25 °C
GST-SipA27-270 [4] = biological target: T2, GST-SipA27-270; experiment: as above; conditions: thymol present in E. coli culture during expression; protein 7.9 uM in PBS, 25 °C

| Structure (SMILES) | click chemistry labelling, in-gel fluorescence (GST-SipA497-669 [1]) | click chemistry labelling, in-gel fluorescence (GST-SipA27-270 [2]) | circular dichroism of purified protein from thymol-exposed cells (GST-SipA497-669 [3]) | circular dichroism of purified protein from thymol-exposed cells (GST-SipA27-270 [4]) |
| --- | --- | --- | --- | --- |
| C#CCOc1cc(C)ccc1C(C)C [alkyne-thymol] | Fluorescence signals were detected only in samples receiving alkyne-thymol | Fluorescence signals were detected only in samples receiving alkyne-thymol |  |  |
| Cc1ccc(C(C)C)c(O)c1 [thymol] |  |  | proteins purified from cells treated with thymol exhibited significant changes in their CD spectra | proteins purified from cells treated with thymol exhibited significant changes in their CD spectra |
